Laboratory results as given in patent publication US4440769A, “2-(4-Phenylalkanoylpiperazin-1-yl) quinazoline compounds, pharmaceutical compositions and method of producing α1 antagonistic activity” (Abbott Laboratories, priority 1983, dated 1984).

How the values were obtained:
[1] = system: α1-adrenergic receptor; settings: Federation Proceedings, Vol. 41, No. 5, Abst. No. 7064; cited from earlier work
[2] = system: α1-adrenergic receptor; test: α1-adrenergic receptor selectivity and antagonism (general statements); settings: result in words
[3] = biological target: T1, α2-adrenergic receptor (Rattus norvegicus, UniProt P22909); test: biochemical; format: binding; settings: rat brain cortex, [3H] yohimbine; calculated from IC50
T1 sequence (P22909 1-465): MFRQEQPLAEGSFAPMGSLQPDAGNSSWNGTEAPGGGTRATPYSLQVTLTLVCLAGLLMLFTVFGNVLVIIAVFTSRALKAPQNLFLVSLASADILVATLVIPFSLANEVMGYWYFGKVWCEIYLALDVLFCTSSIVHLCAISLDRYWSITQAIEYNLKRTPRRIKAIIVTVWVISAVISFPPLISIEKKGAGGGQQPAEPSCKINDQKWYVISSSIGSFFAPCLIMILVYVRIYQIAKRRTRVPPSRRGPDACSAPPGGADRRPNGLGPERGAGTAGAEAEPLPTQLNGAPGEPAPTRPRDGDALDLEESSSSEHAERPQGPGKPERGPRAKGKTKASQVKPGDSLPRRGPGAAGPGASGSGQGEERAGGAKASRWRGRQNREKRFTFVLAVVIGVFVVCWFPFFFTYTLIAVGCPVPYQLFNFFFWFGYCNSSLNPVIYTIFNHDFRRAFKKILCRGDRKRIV

[4] = biological target: α1-adrenergic receptor; test: radioligand binding, displacement of [3H] prazosin in rat brain cortex tissue; settings: for Ki: [3H] prazosin, calculated from IC50; for KIα2/KIα1: ratio of KI values, α1 selectivity
[5] = system: α-adrenergic receptor; test: α-adrenergic receptor antagonistic activity in the isolated rabbit aorta (norepinephrine-induced contraction); format: cell-based; settings: for pA2: norepinephrine agonist, 37±0.5° C., pH 7.4, negative log of concentration requiring doubled norepinephrine
Experimental: Female rabbits, weighing 2 to 5 kg., are sacrificed by cervical dislocation. […] The aorta is placed on cylindrical sticks and cleaned of excess fat and connective tissue, then cut into 2 tissue segments approximately 20 mm in length. Each segment of aorta is then spiraled in strips 3.5 mm wide by turning the stick as a scapel is applied, while leaving a section of 2-3 mm at each end of the aorta section intact. The spiraled tissue is mounted in an aerated (as above) tissue bath of 10 ml. of Kreb's buffer and is attached to a Grass force transducer with an initial applied tension of 2 grams. The tissue is allowed to equilibrate in the tissue bath at a temperature of 37±0.5° C. until the tension on the force transducer stabilizes at 2 grams. A cumulative dose-response curve of contraction for the tissue is determined by contacting the tissue with 10 to 400 ul of the standard agonist norepinephrine in log doses of from 1×10^-8 to 1×10^-3M. […] The degree of antagonistic activity is determined by varying the concentration of the test compound and measuring its pA2 value, i.e., the negative log of the concentration of the test compound required to inhibit the norepinephrine response to the extent that the norepinephrine concentration must be doubled to obtain the maximum standard norepinephrine contractile response of the tissue.

[6] = system: spontaneously hypertensive rat (Okamoto rats); test: arterial blood pressure in the spontaneously hypertensive rat (tail cuff); format: in vivo; settings: oral, 30 or 100 mg./kg.
Description: An occluding cuff, operatively connected to a programmed sphygmomanometer, is placed over the tail of each rat of the group and retained near the tail base. […] A photocell is placed distal to the cuff to detect pulses resulting from the forward motion of blood flow with each heartbeat of the rat. As the pressure in the cuff increases, measurable pulses disappear at the point where the cuff pressure equals the arterial blood pressure. Measurable pulses reappear during deflation at approximately the same pressure, and arterial blood pressure is thereby established by cuff pressure at the point of pulse appearance. The heart rate is determined from the arterial pulse wave. Doses of 30 or 100 mg./kg. of the preferred compound of Example II are administered orally to each rat of the test groups and five interference-free signals are recorded on a Model 7 Grass polygraph for each rat at various measurement periods following administration.

Row | Structure (SMILES) | α1-antagonism [2] | Ki [3] | Ki [4] | KIα2/KIα1 [4] | α1-adrenergic receptor inhibition upon photolysis [1] | selectivity for α1-adrenergic receptor sites [2] | pA2 [5] | decrease of arterial blood pressure [6] | inhibition of increase in contractile force produced by norepinephrine ([5]; result in words)
1 | COc1cc2nc(N3CCN(C(=O)c4ccc(N=[N+]=[N-])cc4)CC3)nc(N)c2cc1OC [2-(4-[4-azido-benzoyl]-piperazin-1-yl)-4-amino-6,7-dimethoxyquinazoline] | – | – | – | – | irreversible non-competitive α1 -adrenergic receptor inhibition | – | – | – | –
2 | COc1cc2nc(N3CCN(C(=O)CCCCc4ccc(N=[N+]=[N-])cc4)CC3)nc(N)c2cc1OC [4-azidophenyl analog, 4-amino-6,7-dimethoxy-2-[4-(5-[4-azidophenyl]pentanoyl)-1-piperazinyl] quinazoline] | produce α1 -antagonism | – | – | – | – | high degree of selectivity for α1 -adrenergic receptor sites | – | – | –
3 | COc1cc2nc(N3CCN(C(=O)c4ccco4)CC3)nc(N)c2cc1OC [prazosin, reference compound] | – | – | – | – | – | – | 8.58 | – | –

Second part, led by results:

Row | α1-antagonism [2] | Ki [3] | Ki [4] | KIα2/KIα1 [4] | Structure (SMILES) | α1-adrenergic receptor inhibition upon photolysis [1] | selectivity for α1-adrenergic receptor sites [2] | pA2 [5] | decrease of arterial blood pressure [6] | inhibition of increase in contractile force produced by norepinephrine ([5]; result in words)
4 | – | 12400 nM | 17 nM | 730.9 | COc1cc2nc(N3CCN(C(=O)c4ccc(N)cc4)CC3)nc(N)c2cc1OC [C, 2-(4-[4-aminobenzoyl]piperazin-1-yl)-4-amino-6,7-dimethoxyquinazoline, reference compound] | – | – | 7.45 | – | –
5 | produce α1 -antagonism | 4930 nM | 4.5 nM | 1,094.5 | COc1cc2nc(N3CCN(C(=O)CCCCc4ccc(N)cc4)CC3)nc(N)c2cc1OC.Cl.Cl [Example II, 4-amino-6,7-dimethoxy-2-[4-(5-[4-aminophenyl]pentanoyl)-1-piperazinyl] quinazoline dihydrochloride] | – | high degree of selectivity for α1 -adrenergic receptor sites | 7.51 | decrease the arterial blood pressure of rats of each group | inhibited
